Earlier results as cited in US11571414B2, “Methods of treating respiratory illnesses, alleviating inflammation and visceral pain, and alleviating opioid addiction while suppressing withdrawal symptoms” (priority 2019, dated 2023).

Test system: μ-opioid receptor and the nociception receptor
Details: nonhuman primates

CC(C)C1CCC(N2CCC3(CC2)C(=O)N(CCNS(N)(=O)=O)Cc2ccccc23)CC1 (centres unmarked) [AT-121]
addictive effects: suppresses the addictive effects
analgesic effects: morphine-like analgesic effects
